Values of other authors, collected in patent US20050032747A1, “COX-2 and FAAH inhibitors” (priority 2003, published 2005).

Test system: prostaglandin synthesis
Details: reported by Shen et al. 1977

Cc1c(CC(=O)O)c2cc(O)ccc2n1C(=O)c1ccc(Cl)cc1 [desmethylindomethacin, O-desmethylindomethacin]
ability to inhibit prostaglandin synthesis: some ability to inhibit prostaglandin synthesis
